# Activity calls are given as the source filed them. No cut-off for these calls is given here.
# Assays:
# [1] = system: von Hippel-Lindau disease tumor suppressor/GTPase KRas (Homo sapiens), P01116+P40337 [G12D]; assay: PROTAC activity at VHL/KRAS G12D mutant in human ASPC1 cells assessed as decrease in pERK level at 1 uM incubated for 6 hrs followed by compound washout measured upto 72 hrs by Western blot analysis; format: cell-based
# ASPC1 [2] = assay: Antiproliferative activity against human ASPC1 cells assessed as inhibition of cell viability incubated for 6 hrs followed by compound washout measured after 114 hrs by Cell Titer Glo assay; format: functional, cell-based
# [3] = system: von Hippel-Lindau disease tumor suppressor/GTPase KRas (Homo sapiens), P01116+P40337 [G12D]; assay: PROTAC activity at VHL/KRAS G12D mutant in human ASPC1 cells assessed as induction of protein degradation incubated for 24 hrs by Western blot analysis relative to control; format: cell-based
# [4] = Competitive binding affinity to His-tagged VHL/Elongin C/Elongin B (unknown origin) by FP assay; design: species or system Homo sapiens
# [5] = Cooperativity factor alpha, ratio of IC50 for His-tagged VHL/Elongin C/Elongin B (unknown origin) to IC50 for His-tagged VHL/Elongin C/Elongin B/KRAS (unknown origin)
# [6] = system: von Hippel-Lindau disease tumor suppressor/GTPase KRas (Homo sapiens), P01116+P40337 [G12D]; assay: PROTAC activity at VHL/KRAS G12D mutant in human ASPC1 cells assessed as induction of protein degradation at 1 uM incubated for 6 hrs by Western blot analysis; format: cell-based
# [7] = system: von Hippel-Lindau disease tumor suppressor/GTPase KRas (Homo sapiens), P01116+P40337 [G12D]; assay: PROTAC activity at VHL/KRAS G12D mutant in human ASPC1 cells assessed as induction of protein degradation at 1 uM pretreated with chloroquine followed by compound treatment for 6 hrs by Western blot analysis; format: cell-based
# [8] = system: von Hippel-Lindau disease tumor suppressor/GTPase KRas (Homo sapiens), P01116+P40337 [G12D]; assay: PROTAC activity at VHL/KRAS G12D mutant in human ASPC1 cells assessed as induction of protein degradation at 1 uM pretreated with BafA1 followed by compound treatment for 6 hrs by Western blot analysis; format: cell-based
# [9] = system: von Hippel-Lindau disease tumor suppressor/GTPase KRas (Homo sapiens), P01116+P40337 [G12D]; assay: PROTAC activity at VHL/KRAS G12D mutant in human ASPC1 cells assessed as induction of protein degradation at 0.1 uM incubated for 24 hrs by Western blot analysis relative to control; format: cell-based
# [10] = biological target: von Hippel-Lindau disease tumor suppressor/GTPase KRas (Homo sapiens) (UniProt P01116+P40337); assay: PROTAC activity at VHL/KRAS in human NCI-H1975 cells assessed as induction of protein degradation at 0.1 uM incubated for 24 hrs by Western blot analysis; format: cell-based
# [11] = system: von Hippel-Lindau disease tumor suppressor/GTPase KRas (Homo sapiens), P01116+P40337 [G12V]; assay: PROTAC activity at VHL/KRAS G12V mutant in human SK-CO-1 cells assessed as induction of protein degradation at 0.1 uM incubated for 24 hrs by Western blot analysis; format: cell-based
# [12] = system: von Hippel-Lindau disease tumor suppressor/GTPase KRas (Homo sapiens), P01116+P40337 [G12S]; assay: PROTAC activity at VHL/KRAS G12S mutant in human A549 cells assessed as induction of protein degradation at 0.1 uM incubated for 24 hrs by Western blot analysis; format: cell-based
# [13] = system: von Hippel-Lindau disease tumor suppressor/GTPase KRas (Homo sapiens), P01116+P40337 [G12C]; assay: PROTAC activity at VHL/KRAS G12C mutant in human NCI-H358 cells assessed as induction of protein degradation at 1 uM incubated for 24 hrs by Western blot analysis relative to control; format: cell-based
# [14] = system: von Hippel-Lindau disease tumor suppressor/GTPase KRas (Homo sapiens), P01116+P40337 [G13D]; assay: PROTAC activity at VHL/KRAS G13D mutant in human HCT-116 cells assessed as induction of protein degradation at 0.1 uM incubated for 24 hrs by Western blot analysis; format: cell-based
# ASPC1 [15] = assay: Downregulation of KRT9 level in human ASPC1 cells at 0.1 uM incubated for 6 hrs by DIA-based proteomic analysis; format: functional, cell-based
# [16] = biological target: T1, von Hippel-Lindau disease tumor suppressor/GTPase KRas (Homo sapiens, UniProt P01116+P40337, G12D); assay: PROTAC activity at VHL/KRAS G12D mutant in human SNU1 cells assessed as induction of protein degradation incubated for 24 hrs by Western blot analysis; format: cell-based
# [17] = biological target: T1, von Hippel-Lindau disease tumor suppressor/GTPase KRas; assay: PROTAC activity at VHL/KRAS G12D mutant in human HPAF-II cells assessed as induction of protein degradation incubated for 24 hrs by Western blot analysis; format: cell-based
# [18] = biological target: T1, von Hippel-Lindau disease tumor suppressor/GTPase KRas; assay: PROTAC activity at VHL/KRAS G12D mutant in human AGS cells assessed as induction of protein degradation incubated for 24 hrs by Western blot analysis; format: cell-based
# [19] = biological target: T1, von Hippel-Lindau disease tumor suppressor/GTPase KRas; assay: PROTAC activity at VHL/KRAS G12D mutant in human PANC-1 cells assessed as induction of protein degradation incubated for 24 hrs by Western blot analysis; format: cell-based
# SNU1 = assay: Antiproliferative activity against human SNU1 cells harboring KRAS G12D mutant assessed as inhibition of cell viability incubated for 5 days by Cell Titer Glo assay; format: functional, cell-based; conditions: SNU1, 120 h
# [20] = system: von Hippel-Lindau disease tumor suppressor/GTPase KRas (Homo sapiens), P01116+P40337 [G12D]; assay: PROTAC activity at VHL/KRAS G12D mutant in human SNU1 cells assessed as decrease in pERK level at 1 uM incubated upto 24 hrs by Western blot analysis; format: cell-based
# [21] = biological target: T1, von Hippel-Lindau disease tumor suppressor/GTPase KRas; assay: PROTAC activity at VHL/KRAS G12D mutant in human ASPC1 cells assessed as inhibition of pERK level incubated for 24 hrs by Western blot analysis; format: cell-based
# [22] = MRT (infinity) in BALB/c mouse at 10 mg/kg, sc by LC-MS/MS analysis; format: ADME, organism-based; conditions: in vivo
# [23] = system: von Hippel-Lindau disease tumor suppressor/GTPase KRas (Homo sapiens), P01116+P40337 [G12D]; assay: In vivo PROTAC activity at VHL/KRAS G12D mutant in human ASPC1 cells xenografted in BALB/c nude mouse assessed as induction of protein degradation at 50 mg/kg, sc measured for 3 to 72 hrs by Western blot analysis; format: functional, organism-based; conditions: time 3-72 hrs
# [24] = system: von Hippel-Lindau disease tumor suppressor/GTPase KRas (Homo sapiens), P01116+P40337 [G12D]; assay: In vivo PROTAC activity at VHL/KRAS G12D mutant in human ASPC1 cells xenografted in BALB/c nude mouse assessed as decrease in pERK level at 50 mg/kg, sc measured for 24 hrs by Western blot analysis; format: functional, organism-based
# [25] = system: von Hippel-Lindau disease tumor suppressor/GTPase KRas (Homo sapiens), P01116+P40337 [G12D]; assay: In vivo PROTAC activity at VHL/KRAS G12D mutant in human ASPC1 cells xenografted in BALB/c nude mouse assessed as decrease in DUSP4 mRNA level at 50 mg/kg, sc measured for 24 hrs by RT-qPCR analysis; format: functional, organism-based
# ASPC1 [26] = assay: Antitumor activity in human ASPC1 cells xenografted in BALB/c nude mouse assessed as tumor growth inhibition at 50 mg/kg, sc administered once daily for 22 days relative to control; format: functional; conditions: ASPC1, 528 h, time 22 day, read-out: TGI
# ASPC1 [27] = assay: Antitumor activity in human ASPC1 cells xenografted in BALB/c nude mouse assessed as tumor growth inhibition at 50 mg/kg, sc administered once per three days for 22 days relative to control; format: functional; conditions: ASPC1, 528 h, time 22 day, read-out: TGI
# [28] = Toxicity in BALB/c nude mouse xenografted with human ASPC1 cells assessed as drug tolerance at 50 mg/kg, sc for 22 days; format: organism-based; conditions: in vivo, 528 h, time 22 day
# [29] = Toxicity in BALB/c nude mouse xenografted with human ASPC1 cells assessed as body weight loss at 50 mg/kg, sc for 22 days; format: organism-based; conditions: in vivo, 528 h, time 22 day
# Sequence of von Hippel-Lindau disease tumor suppressor/GTPase KRas (Homo sapiens), P01116+P40337 [G12D] (P01116 whole entry G12D): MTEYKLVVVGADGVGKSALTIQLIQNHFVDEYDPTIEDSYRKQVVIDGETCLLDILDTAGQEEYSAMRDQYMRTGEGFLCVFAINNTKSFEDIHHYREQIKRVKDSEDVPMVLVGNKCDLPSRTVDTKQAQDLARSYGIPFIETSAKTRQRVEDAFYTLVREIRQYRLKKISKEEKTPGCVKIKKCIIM
# Sequence of von Hippel-Lindau disease tumor suppressor/GTPase KRas (Homo sapiens), P01116+P40337 [G12D] (P40337 whole entry partner): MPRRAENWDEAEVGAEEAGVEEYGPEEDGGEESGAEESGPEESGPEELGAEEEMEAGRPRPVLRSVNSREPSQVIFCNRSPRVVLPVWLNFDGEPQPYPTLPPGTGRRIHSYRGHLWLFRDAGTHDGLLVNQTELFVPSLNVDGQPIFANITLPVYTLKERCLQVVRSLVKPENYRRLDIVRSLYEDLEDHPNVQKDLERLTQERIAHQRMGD
# T1 sequence (P01116 whole entry G12D, stated change not applied): as the sequence (P01116 whole entry G12D) above
# T1 sequence (P40337 whole entry, stated change not applied): as the sequence (P40337 whole entry partner) above
# Sequence of von Hippel-Lindau disease tumor suppressor/GTPase KRas (Homo sapiens) (P01116 whole entry, looked up): as the sequence (P01116 whole entry G12D) above, with D12G counted along it
# Sequence of von Hippel-Lindau disease tumor suppressor/GTPase KRas (Homo sapiens) (P40337 whole entry, looked up): as the sequence (P40337 whole entry partner) above
compound,measurement,setting,value
CCc1c(F)ccc2cc(O)cc(-c3ncc4c(N5C[C@H]6CC[C@@H](C5)N6)nc(OC[C@@H]5CCCN5CCCCOCC(=O)N[C@H](C(=O)N5C[C@H](O)C[C@H]5C(=O)N[C@@H](C)c5ccc(-c6scnc6C)cc5)C(C)(C)C)nc4c3F)c12,Activity,[1],Active
same,IC50,ASPC1 [2],231 nM
same,Emax,[3],98.9%
same,IC50,[4],299 nM
same,Ratio IC50,[5],15.9
same,Activity,[6],Active
same,Activity,[7],Active
same,Activity,[8],Active
same,Activity,[9],75.8%
same,Activity,[10],inactive
same,Activity,[11],inactive
same,Activity,[12],inactive
same,Activity,[13],37.4%
same,Activity,[14],inactive
same,Activity,ASPC1 [15],Active
same,DC50,[16],19.8 nM
same,DC50,[17],53 nM
same,DC50,[18],7.49 nM
same,DC50,[19],87.8 nM
same,IC50,SNU1,43.5 nM
same,Activity,[20],Active
same,IC50,[21],52.9 nM
same,MRT inf,[22],9.33 h
same,Activity,[23],Active
same,Activity,[24],Active
same,Activity,[25],Active
same,inhibition in vivo at 50 mg/kg,ASPC1 [26],68.6%
same,inhibition in vivo at 50 mg/kg,ASPC1 [27],50.9%
same,Activity,[28],Non-Toxic
same,Activity,[29],Non-Toxic

# Source: ChEMBL document CHEMBL5537171, “Design, Synthesis, and Biological Evaluation of Potent and Selective PROTAC Degraders of Oncogenic KRASG12D” (J Med Chem, 2024)
